Results as given in PMC3176149, “Application of Celluspots peptide arrays for the analysis of the binding specificity of epigenetic reading domains to modified histone tails” (BMC Biochemistry, 2011).
Entries after “also recorded” stand apart in the source; their conditions may differ.

How the values were obtained:
[1] = system: Dnmt3a PWWP domain (residues 279-420); assay: Binding of GST-fused Dnmt3a PWWP domain to modified histone peptides on Celluspots peptide arrays; parameters: species or system murine; details: Dnmt3a PWWP GST fusion 50 nM, room temperature, 2 hours, interaction buffer pH 7.5, ECL, tested at least two times
Protocol: In the present study, the binding specificities of seven known reading domains were analyzed using Celluspots peptide arrays comprising 384 peptides from 8 different regions of the N-terminal histone tails, viz. H3 1-19, 7-26, 16-35 and 26-45, H4 1-19 and 11-30, H2A 1-19 and H2B 1-19. The arrays are commercially available from Active Motif and feature 59 post-translational modifications (most of them identified, some of them hypothetical) in many different combinations (Additional file 1). Binding of the GST fused reading domain proteins to peptide arrays was visualized using an anti-GST antibody, followed by a secondary anti-goat-HRP antibody and ECL detection system. The domains were selected to represent the different folds of reading domains and show a wide range of specificities. […] Each reading domain was tested at least two times on the peptide arrays to ensure that the results are reliable. […] The binding intensities for each tested reading domain were analyzed with the Array Analyze program, which calculates the average of the binding intensities to corresponding peptide spots in both copies of the array and prepares a graphical output - one scatter plot illustrating the binding intensities observed at corresponding spots in both copies of the array and a bar diagram showing the distribution of deviations of the binding intensities to the corresponding spots. […]

Dnmt3a PWWP domain = details: SPOT arrays and follow-up experiments; ref [19]; cited from earlier work
Protocol: These binding modules are about 50 amino acids long and contain two binding sites for zinc ions. The PHD finger of Rag2, an essential component of the Rag1/2 V(D)J recombinase, which mediates antigen-receptor gene assembly, interact ... || Another reading domain which was tested on the Celluspots peptide arrays is the PWWP domain of Dnmt3a. […] Since there is only one H3K36me3-modified peptide spot, the effect of enhancing or inhibiting secondary modifications could not be studied in this case. […] Since peptide arrays are screening tools, unexpected or novel results need to be confirmed by equilibrium peptide binding experiments using purified peptides. In our experience, such studies often confirmed results from peptide arrays. For example in the case of the Dnmt3a PWWP domain, binding ...

[2] = system: 53BP1 tandem Tudor domain; details: ref [14],[15]; cited from earlier work
Description: (§1) The Tudor domain folds into a ß-sandwich flanked by one α-helix.

[3] = system: 53BP1 tandem Tudor domain (residues 1490-1608); assay: Binding of GST-fused 53BP1 tandem Tudor domain to modified histone peptides on Celluspots peptide arrays; parameters: species or system human; details: 53BP1 tandem Tudor GST fusion 1 μM, room temperature, 2 hours, interaction buffer pH 7.5, ECL, tested at least two times
Protocol: (§2) In the present study, the binding specificities of seven known reading domains were analyzed using Celluspots peptide arrays comprising 384 peptides from 8 different regions of the N-terminal histone tails, viz. H3 1-19, 7-26, 16-35 and 26-45, H4 1-19 and 11-30, H2A 1-19 and H2B 1-19. The arrays are commercially available from Active Motif and feature 59 post-translational modifications (most of them identified, some of them hypothetical) in many different combinations (Additional file 1). Binding of the GST fused reading domain proteins to peptide arrays was visualized using an anti-GST antibody, followed by a secondary anti-goat-HRP antibody and ECL detection system. […] In case of weak signals, the experiment was repeated with higher protein concentration. In case of an overexposed image, the protein concentration was reduced. For quality control, each glass slide contains two identical copies of the array. […] The sequences encoding human HP1ß full length (residues 1-185), the Chromo domain of human MPP8 (residues 58-112), the double Tudor domain of human JMJ[…] (residues 856-1047), the tandem Tudor domain of human 53BP1 (residues 1490-1608), the PHD finger of human Rag2 (residues 311-520) and the second Bromo domain of human BRD2 (residues 348-455) were amplified from cDNA derived from HEK293 cells and cloned as GST fusion proteins into the pGEX-6P-2 vector (GE Healthcare).

[4] = system: JMJD2A double Tudor domain; details: ref [14],[17],[18]; cited from earlier work
Description: as §1

[5] = system: JMJD2A double Tudor domain (residues 856-1047); assay: Binding of GST-fused JMJD2A double Tudor domain to modified histone peptides on Celluspots peptide arrays; parameters: species or system human; details: JMJD2A double Tudor GST fusion 10 nM, room temperature, 2 hours, interaction buffer pH 7.5, ECL, tested at least two times
Protocol: as §2

Substance	binding to modified histone tail peptides (array signal) [1]	interaction with 53BP1 tandem Tudor domain (literature) [2]	also measured
H3K36me2: H3K36me2 modified histone tail peptide on Celluspots array	weaker binding signal in comparison to H3K36me3		
H3K36me3: H3K36me3-modified peptide spot on Celluspots array (only one)	specifically bound		interaction with Dnmt3a PWWP domain (literature) (Dnmt3a PWWP domain): specific interaction; also recorded: could be verified by peptide binding, pull-down of native nucleosomes and functional DNA methylation experiments; also recorded: shown to read H3K36me3
H4K20me1: H4K20me1 modified histone tail peptide on Celluspots array		reported to interact	binding to modified histone tail peptides (array signal) [3]: not observed on the peptide array
H4K20me2: H4K20me2 modified histone tail peptide on Celluspots array		reported to interact; also recorded: shown to interact	binding to JMJD2A double Tudor domain (literature) [4]: interact preferentially; also recorded: reported to bind; binding to modified histone tail peptides (array signal) [5]: next best bound modification on the peptide array
